Measured values as given in ChEMBL document CHEMBL4177534, “Discovery and evaluation of 1H-pyrrolo[2,3-b]pyridine based selective and reversible small molecule BTK inhibitors for the treatment of rheumatoid arthritis” (Bioorg Med Chem Lett, 2017).

Legend:
[1] = Metabolic stability in mouse liver microsomes assessed as metabolism rate; format: ADME, microsome
[2] = Equilibrium aqueous solubility of the compound at pH 4; format: physicochemical
[3] = target: Tyrosine-protein kinase JAK1 (Homo sapiens, UniProt P23458); test: Inhibition of JAK1 (unknown origin)
[4] = target: Tyrosine-protein kinase JAK2 (Homo sapiens, UniProt O60674); test: Inhibition of JAK2 (unknown origin)
[5] = target: Cytoplasmic tyrosine-protein kinase BMX (Homo sapiens, UniProt P51813); test: Inhibition of human BMX
[6] = target: Tyrosine-protein kinase BTK (Mus musculus, UniProt P35991); test: Inhibition of mouse BTK assessed as decrease in anti-mouse IgD antibody stimulated BCR mediated CD69 upregulation in whole blood preincubated for 1 hr followed by antibody challenge after 4 hrs by flow cytometry
[7] = Clearance in mouse at 3 mg/kg, iv; format: ADME, organism-based; conditions: in vivo
[8] = Oral bioavailability in mouse at 10 mg/kg; format: ADME, organism-based; conditions: in vivo
[9] = tested on: Mus musculus; test: Ex-vivo inhibition of BTK in C57BL/6J mouse assessed as anti-mouse IgD antibody stimulated BCR mediated CD69 level in whole blood isolated from 10 mg/kg, po bid treated mouse measured after 6 hrs post first dose by flow cytometry relative to control; format: functional; design: scale not given: the % may be the effect or the level left
[10] = tested on: Mus musculus; test: Antiarthritic activity in DBA/1J mouse type-2 collagen-induced arthritis model assessed as reduction in clinical score immunized with type-2 collagen on day 1 and day 21 followed by LPS challenge on day 28 subsequent compound administration po bid by hematoxylin and eosin staining based assay; format: functional, organism-based
[11] = target: Interleukin-1 receptor-associated kinase 4 (Homo sapiens) (UniProt Q9NWZ3); test: Inhibition of recombinant human full length N-terminal GST-tagged IRAK4 expressed in baculovirus infected Sf9 cells assessed as change in enzyme activity at 1 uM in presence of 2 uM ATP relative to control; design: scale not given: the % may be the effect or the level left
[12] = target: Receptor-type tyrosine-protein kinase FLT3 (Homo sapiens) (UniProt P36888); test: Inhibition of recombinant human N-terminal GST-tagged FLT3 (571 to 993 residues) expressed in baculovirus infected Sf9 cells assessed as change in enzyme activity at 1 uM in presence of 2 uM ATP relative to control; design: scale not given: the % may be the effect or the level left
[13] = target: TGF-beta receptor type-2 (Homo sapiens) (UniProt P37173); test: Inhibition of recombinant N-terminal GST-tagged TGFBR2 (unknown origin) expressed in baculovirus infected Sf9 cells assessed as change in enzyme activity at 1 uM in presence of 1 uM ATP relative to control; design: scale not given: the % may be the effect or the level left
[14] = target: Mitogen-activated protein kinase 8 (Mus musculus) (UniProt Q91Y86); test: Inhibition of recombinant mouse N-terminal GST-tagged JNK1 expressed in baculovirus infected Sf9 cells assessed as change in enzyme activity at 1 uM in presence of 1 uM ATP relative to control; design: scale not given: the % may be the effect or the level left
[15] = target: Inhibitor of nuclear factor kappa-B kinase subunit beta (Homo sapiens) (UniProt O14920); test: Inhibition of recombinant human N-terminal GST-tagged IKKbeta expressed in baculovirus infected Sf9 cells assessed as change in enzyme activity at 1 uM in presence of 1 uM ATP relative to control; design: scale not given: the % may be the effect or the level left
[16] = target: Proto-oncogene tyrosine-protein kinase Src (Homo sapiens) (UniProt P12931); test: Inhibition of SRC (unknown origin) assessed as change in enzyme activity in presence of 1 uM ATP relative to control; design: scale not given: the % may be the effect or the level left
[17] = target: Tyrosine-protein kinase Lck (Homo sapiens) (UniProt P06239); test: Inhibition of recombinant human full length N-terminal GST-tagged LCK expressed in baculovirus infected Sf9 cells assessed as change in enzyme activity at 1 uM in presence of 1 uM ATP relative to control; design: scale not given: the % may be the effect or the level left
[18] = target: Tyrosine-protein kinase ZAP-70 (Homo sapiens) (UniProt P43403); test: Inhibition of recombinant human full length N-terminal GST-tagged ZAP70 expressed in baculovirus infected Sf9 cells assessed as change in enzyme activity at 1 uM in presence of 2 uM ATP relative to control; design: scale not given: the % may be the effect or the level left
[19] = target: RAC-alpha serine/threonine-protein kinase (Homo sapiens) (UniProt P31749); test: Inhibition of recombinant human full length N-terminal GST-tagged AKT1 expressed in baculovirus infected Sf9 cells assessed as change in enzyme activity at 1 uM in presence of 2 uM ATP relative to control; design: scale not given: the % may be the effect or the level left
[20] = target: Dual specificity mitogen-activated protein kinase kinase 1 (Homo sapiens) (UniProt Q02750); test: Inhibition of recombinant full length N-terminal GST-tagged MEK1 (unknown origin) assessed as change in enzyme activity at 1 uM in presence of 1 uM ATP relative to control; design: scale not given: the % may be the effect or the level left
[21] = target: Mitogen-activated protein kinase 3 (Homo sapiens) (UniProt P27361); test: Inhibition of recombinant human full length ERK1 assessed as change in enzyme activity at 1 uM in presence of 1 uM ATP relative to control; design: scale not given: the % may be the effect or the level left
[22] = target: Glycogen synthase kinase-3 beta (Homo sapiens) (UniProt P49841); test: Inhibition of recombinant human full length N-terminal GST/His tagged GSK3beta expressed in baculovirus infected Sf9 cells assessed as change in enzyme activity at 1 uM in presence of 1 uM ATP relative to control; design: scale not given: the % may be the effect or the level left
[23] = target: Hepatocyte growth factor receptor (Homo sapiens) (UniProt P08581); test: Inhibition of recombinant human N-terminal GST-tagged MET (956 to end residues) expressed in baculovirus infected Sf9 cells assessed as change in enzyme activity at 1 uM in presence of 1 uM ATP relative to control; design: scale not given: the % may be the effect or the level left
[24] = target: Serine/threonine-protein kinase pim-2 (Homo sapiens) (UniProt Q9P1W9); test: Inhibition of recombinant human full length N-terminal GST-tagged PIM2 expressed in baculovirus infected Sf9 cells assessed as change in enzyme activity at 1 uM in presence of 1 uM ATP relative to control; design: scale not given: the % may be the effect or the level left
[25] = target: Rho-associated protein kinase 1 (Homo sapiens) (UniProt Q13464); test: Inhibition of recombinant human N-terminal GST-tagged ROCK1 (17 to 535 residues) expressed in baculovirus infected Sf9 cells assessed as change in enzyme activity at 1 uM in presence of 1 uM ATP relative to control; design: scale not given: the % may be the effect or the level left
[26] = target: Protein kinase C (PKC) (Homo sapiens) (UniProt O94806+P41743+P17252+P05129+Q05655+P05771+Q05513+Q02156+P24723+Q15139+Q04759); test: Inhibition of recombinant human full length N-terminal GST-tagged PKCalpha expressed in baculovirus infected Sf9 cells assessed as change in enzyme activity at 1 uM in presence of 1 uM ATP relative to control; design: scale not given: the % may be the effect or the level left
[27] = target: Tyrosine-protein kinase TXK (Homo sapiens) (UniProt P42681); test: Inhibition of recombinant N-terminal GST-tagged TXK (unknown origin) expressed in baculovirus infected Sf9 cells assessed as change in enzyme activity at 1 uM in presence of 2 uM ATP relative to control; design: scale not given: the % may be the effect or the level left
[28] = target: PAK 1/CDC42 (Homo sapiens) (UniProt Q13153+P60953); test: Inhibition of recombinant human full length N-terminal GST-tagged PAK1/CDC42 expressed in baculovirus infected Sf9 cells assessed as change in enzyme activity at 1 uM in presence of 2 uM ATP relative to control; design: scale not given: the % may be the effect or the level left

Tyrosine-protein kinase TXK (Homo sapiens), sequence (P42681 whole entry): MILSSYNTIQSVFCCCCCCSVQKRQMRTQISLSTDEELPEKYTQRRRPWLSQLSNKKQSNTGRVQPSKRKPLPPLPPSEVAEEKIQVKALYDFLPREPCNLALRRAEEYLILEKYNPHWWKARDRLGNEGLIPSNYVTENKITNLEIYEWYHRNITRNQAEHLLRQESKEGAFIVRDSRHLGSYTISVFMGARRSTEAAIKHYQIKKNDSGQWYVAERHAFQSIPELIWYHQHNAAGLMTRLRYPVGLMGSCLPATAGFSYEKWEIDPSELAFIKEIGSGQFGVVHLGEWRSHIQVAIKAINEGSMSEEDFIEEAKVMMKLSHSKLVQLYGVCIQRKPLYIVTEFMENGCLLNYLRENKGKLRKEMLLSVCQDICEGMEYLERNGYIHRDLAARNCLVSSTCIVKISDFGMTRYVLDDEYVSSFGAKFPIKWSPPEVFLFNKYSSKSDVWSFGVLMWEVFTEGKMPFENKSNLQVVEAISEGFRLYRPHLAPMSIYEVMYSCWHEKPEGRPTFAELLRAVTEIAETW
Tyrosine-protein kinase JAK2, sequence (O60674 whole entry): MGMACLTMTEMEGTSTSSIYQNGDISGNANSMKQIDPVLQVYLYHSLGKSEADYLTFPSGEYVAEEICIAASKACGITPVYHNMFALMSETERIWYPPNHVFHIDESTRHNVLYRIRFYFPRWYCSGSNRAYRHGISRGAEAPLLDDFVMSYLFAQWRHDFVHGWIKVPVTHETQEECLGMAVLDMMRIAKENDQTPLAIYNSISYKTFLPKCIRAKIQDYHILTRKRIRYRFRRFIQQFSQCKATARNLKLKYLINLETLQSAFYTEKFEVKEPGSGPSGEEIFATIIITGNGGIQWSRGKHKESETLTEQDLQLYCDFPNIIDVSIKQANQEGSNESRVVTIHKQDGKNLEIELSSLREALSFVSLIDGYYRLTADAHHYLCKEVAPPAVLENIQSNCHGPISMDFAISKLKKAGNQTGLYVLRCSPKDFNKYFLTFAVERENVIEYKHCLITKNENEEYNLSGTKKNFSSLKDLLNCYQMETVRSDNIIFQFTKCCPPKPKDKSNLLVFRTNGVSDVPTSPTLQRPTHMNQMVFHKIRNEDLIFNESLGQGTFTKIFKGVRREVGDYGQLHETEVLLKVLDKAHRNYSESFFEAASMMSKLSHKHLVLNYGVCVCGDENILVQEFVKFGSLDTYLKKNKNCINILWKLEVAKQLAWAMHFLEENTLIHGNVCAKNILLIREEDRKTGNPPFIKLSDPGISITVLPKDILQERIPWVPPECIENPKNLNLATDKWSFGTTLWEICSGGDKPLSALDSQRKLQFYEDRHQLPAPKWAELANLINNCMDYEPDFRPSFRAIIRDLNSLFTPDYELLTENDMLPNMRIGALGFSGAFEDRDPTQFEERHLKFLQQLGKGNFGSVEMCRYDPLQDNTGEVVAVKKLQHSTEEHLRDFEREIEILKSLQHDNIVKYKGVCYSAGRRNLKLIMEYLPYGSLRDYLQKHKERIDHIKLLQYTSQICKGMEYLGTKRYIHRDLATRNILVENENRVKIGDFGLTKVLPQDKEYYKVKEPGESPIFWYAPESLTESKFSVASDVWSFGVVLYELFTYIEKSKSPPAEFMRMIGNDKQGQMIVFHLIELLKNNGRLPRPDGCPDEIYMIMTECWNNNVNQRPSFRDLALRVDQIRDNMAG
Cytoplasmic tyrosine-protein kinase BMX, sequence (P51813 whole entry): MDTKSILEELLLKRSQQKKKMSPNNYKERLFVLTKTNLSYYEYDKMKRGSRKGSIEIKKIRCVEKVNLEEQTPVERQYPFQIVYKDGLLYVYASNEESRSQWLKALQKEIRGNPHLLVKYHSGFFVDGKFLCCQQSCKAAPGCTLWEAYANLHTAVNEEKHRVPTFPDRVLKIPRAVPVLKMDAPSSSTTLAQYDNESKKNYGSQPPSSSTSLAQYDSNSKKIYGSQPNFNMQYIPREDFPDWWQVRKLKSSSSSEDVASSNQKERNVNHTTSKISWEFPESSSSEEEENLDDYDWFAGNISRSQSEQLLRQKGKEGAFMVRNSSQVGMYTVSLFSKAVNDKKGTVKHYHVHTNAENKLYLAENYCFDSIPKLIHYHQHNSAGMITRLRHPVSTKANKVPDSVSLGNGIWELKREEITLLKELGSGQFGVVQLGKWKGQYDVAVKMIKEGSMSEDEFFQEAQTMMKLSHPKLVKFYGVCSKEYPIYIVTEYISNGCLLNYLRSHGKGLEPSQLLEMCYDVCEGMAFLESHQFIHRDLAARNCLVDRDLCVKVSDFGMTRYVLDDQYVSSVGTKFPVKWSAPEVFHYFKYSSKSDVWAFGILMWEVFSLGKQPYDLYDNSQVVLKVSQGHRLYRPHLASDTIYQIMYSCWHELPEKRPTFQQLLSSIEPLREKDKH
TGF-beta receptor type-2 (Homo sapiens), sequence (P37173 whole entry): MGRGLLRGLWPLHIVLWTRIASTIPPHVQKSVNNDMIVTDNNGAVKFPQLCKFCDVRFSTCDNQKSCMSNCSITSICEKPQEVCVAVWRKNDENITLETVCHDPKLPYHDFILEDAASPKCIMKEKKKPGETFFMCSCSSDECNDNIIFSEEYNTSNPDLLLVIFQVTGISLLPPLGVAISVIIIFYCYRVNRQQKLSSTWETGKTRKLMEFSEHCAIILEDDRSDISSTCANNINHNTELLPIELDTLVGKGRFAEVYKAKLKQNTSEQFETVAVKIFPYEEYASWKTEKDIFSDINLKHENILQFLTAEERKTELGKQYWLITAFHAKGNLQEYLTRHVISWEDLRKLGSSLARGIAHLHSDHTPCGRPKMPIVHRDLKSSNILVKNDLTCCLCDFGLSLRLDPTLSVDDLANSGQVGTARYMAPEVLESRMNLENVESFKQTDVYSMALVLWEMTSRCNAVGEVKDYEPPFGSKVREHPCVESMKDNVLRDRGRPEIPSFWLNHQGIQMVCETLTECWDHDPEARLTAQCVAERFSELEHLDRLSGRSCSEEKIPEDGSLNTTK
Receptor-type tyrosine-protein kinase FLT3 (Homo sapiens), sequence (P36888 whole entry, the tested form may be a part): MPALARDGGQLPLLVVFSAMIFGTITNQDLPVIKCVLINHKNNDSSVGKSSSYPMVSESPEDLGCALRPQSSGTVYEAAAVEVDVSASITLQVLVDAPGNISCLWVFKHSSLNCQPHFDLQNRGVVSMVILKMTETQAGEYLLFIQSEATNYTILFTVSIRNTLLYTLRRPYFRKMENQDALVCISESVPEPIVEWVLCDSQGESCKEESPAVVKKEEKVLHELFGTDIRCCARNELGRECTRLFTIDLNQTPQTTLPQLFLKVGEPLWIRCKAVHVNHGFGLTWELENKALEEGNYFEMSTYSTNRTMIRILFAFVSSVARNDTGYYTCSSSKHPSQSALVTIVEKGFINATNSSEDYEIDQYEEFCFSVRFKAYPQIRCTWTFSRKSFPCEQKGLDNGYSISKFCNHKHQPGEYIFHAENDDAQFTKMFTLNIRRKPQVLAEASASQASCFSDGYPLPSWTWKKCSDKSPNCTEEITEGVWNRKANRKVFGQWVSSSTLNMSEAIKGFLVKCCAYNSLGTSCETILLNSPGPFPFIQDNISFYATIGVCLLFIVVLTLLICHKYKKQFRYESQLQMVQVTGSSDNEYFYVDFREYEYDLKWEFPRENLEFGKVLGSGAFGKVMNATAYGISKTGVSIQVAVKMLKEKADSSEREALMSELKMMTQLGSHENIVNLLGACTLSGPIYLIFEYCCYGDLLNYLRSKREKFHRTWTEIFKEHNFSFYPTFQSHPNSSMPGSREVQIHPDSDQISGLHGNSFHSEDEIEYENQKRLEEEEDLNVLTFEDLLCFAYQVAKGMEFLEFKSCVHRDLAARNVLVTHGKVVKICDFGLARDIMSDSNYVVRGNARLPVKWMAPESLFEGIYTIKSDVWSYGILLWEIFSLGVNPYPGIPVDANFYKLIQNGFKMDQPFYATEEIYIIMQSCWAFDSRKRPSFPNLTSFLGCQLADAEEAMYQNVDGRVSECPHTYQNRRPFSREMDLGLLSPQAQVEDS
Interleukin-1 receptor-associated kinase 4 (Homo sapiens), sequence (Q9NWZ3 whole entry, the tested form may be a part): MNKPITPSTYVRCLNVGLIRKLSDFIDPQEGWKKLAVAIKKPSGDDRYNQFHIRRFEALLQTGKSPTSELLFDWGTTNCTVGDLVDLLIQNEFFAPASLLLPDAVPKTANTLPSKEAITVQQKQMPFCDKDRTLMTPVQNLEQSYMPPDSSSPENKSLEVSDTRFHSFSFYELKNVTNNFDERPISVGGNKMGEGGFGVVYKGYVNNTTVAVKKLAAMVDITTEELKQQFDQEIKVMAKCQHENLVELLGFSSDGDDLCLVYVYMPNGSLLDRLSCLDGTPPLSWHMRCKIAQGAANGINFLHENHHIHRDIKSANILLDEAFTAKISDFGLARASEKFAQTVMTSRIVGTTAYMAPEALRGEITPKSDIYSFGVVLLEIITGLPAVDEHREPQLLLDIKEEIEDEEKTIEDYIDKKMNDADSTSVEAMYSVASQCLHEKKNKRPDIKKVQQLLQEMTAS
Tyrosine-protein kinase BTK, sequence (P35991 whole entry): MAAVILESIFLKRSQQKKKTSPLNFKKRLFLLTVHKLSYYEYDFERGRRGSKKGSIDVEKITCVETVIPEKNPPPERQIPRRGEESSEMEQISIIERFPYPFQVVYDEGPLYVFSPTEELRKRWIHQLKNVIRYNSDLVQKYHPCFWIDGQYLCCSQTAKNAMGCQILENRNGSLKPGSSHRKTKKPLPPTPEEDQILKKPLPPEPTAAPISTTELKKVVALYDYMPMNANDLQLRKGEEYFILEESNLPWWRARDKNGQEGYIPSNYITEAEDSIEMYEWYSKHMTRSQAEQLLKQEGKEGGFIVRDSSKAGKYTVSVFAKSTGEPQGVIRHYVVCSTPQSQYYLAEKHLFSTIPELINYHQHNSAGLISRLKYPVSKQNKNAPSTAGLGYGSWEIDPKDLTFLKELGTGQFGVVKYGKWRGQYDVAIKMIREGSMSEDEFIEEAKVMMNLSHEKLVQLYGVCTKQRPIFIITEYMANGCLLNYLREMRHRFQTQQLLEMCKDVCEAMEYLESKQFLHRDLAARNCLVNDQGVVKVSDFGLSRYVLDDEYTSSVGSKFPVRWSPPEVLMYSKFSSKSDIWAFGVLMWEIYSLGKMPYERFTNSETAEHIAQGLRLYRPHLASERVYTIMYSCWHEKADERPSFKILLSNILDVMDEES

Drug metabolism [1] | solubility thermodynamic [2] | IC50 [3] | IC50 [4] | IC50 [5] | IC50 [6] | clearance [7] | bioavailability [8] | Activity [11] | Activity [12] | Activity [13] | Activity [14] | Activity [15] | Activity [16] | Activity [17] | Activity [18] | Activity [19] | Activity [20] | Structure (SMILES) | Activity [9] | Activity [10] | further results
< 0.04 nmol/min/mg | > 2000 µM | > 10 µM | > 10 µM | 4.68 µM | 0.364 µM | 5.5 mL/min/kg | 49% | 2% | -5% | 3% | -4% | 1% | -26% | 1% | -1% | -3% | -20% | O=C1c2c(F)cc(C3CC3)cc2OCCN1c1cccc(-c2ccnc3[nH]c(C4=CCN(C5COC5)CC4)cc23)c1CO | 44% | Dose-dependent effect | Activity [21]: 1%; Activity [22]: -2%; Activity [23]: 5%; Activity [24]: 1%; Activity [25]: 3%; Activity [26]: -1%; Activity [27]: 1%; Activity [28]: 2%
< 0.04 nmol/min/mg | > 2000 µM | > 10 µM | > 10 µM | 1.55 µM | 0.159 µM | 4.6 mL/min/kg | 51% | -3% | -5% | 2% | 1% | 0% | -33% | -4% | 1% | -15% | -14% | CCN1CCN(Cc2ccc(-c3cc4c(-c5cccc(N6CCOc7cc(C8CC8)cc(F)c7C6=O)c5CO)ccnc4[nH]3)nc2)CC1 | 69% | Dose-dependent effect | Activity [21]: 2%; Activity [22]: 2%; Activity [23]: -6%; Activity [24]: 0%; Activity [25]: -4%; Activity [26]: -1%; Activity [27]: -2%; Activity [28]: 0%
